Measurements as given in patent US20070082044A1, “Synergistic effect of compositions comprising carotenoids selected from lutein, beta-carotene and lycopene” (TRUSTEES OF TUFTS COLLEGE, priority 2004, published 2007).
Entries after “also recorded” stand apart in the source; their conditions may differ. Marks after values point to notes of the source that are not given here.

Tests used:
lymphocyte DNA [1] = assay: Hydrogen peroxide induced lymphocyte DNA damage, comet assay; assay type: in vivo, human; settings: for hydrogen peroxide induced lymphocyte DNA damage: DNA challenged with 10 μM H2O2 for 10 min, Means ± SD; for H2O2 induced DNA damage compared to day 1: after 56-day intervention (d 57), H2O2 10 micromolar for 10 min, p<0.05
Description: (§1) A study was undertaken to evaluate the effectiveness of the composition of the present invention and its effect on the patients. Thirty-seven healthy non-smoking post-menopausal women (50˜70 yr) were randomly assigned to one of 5 groups, to take a daily dose of mixed carotenoids (β-carotene, lutein and lycopene, 4 mg each), or 12 mg of single carotenoid (β-carotene, lutein or lycopene), or placebo for 8 weeks. Plasma carotenoid concentrations were analyzed by an HPLC system with a C30 column, and lymphocyte DNA damage was determined by a single cell gel electrophoresis (comet) assay.
(§2) From the second day of intervention, subjects took either 1) placebo, 2) 4 mg of lutein, 4 mg of β-carotene and 4 mg of lycopene, 3) 12 mg of lutein, 4) 12 mg of β-carotene, or 5) 12 mg of lycopene. On study days 15, 29, 43, and 57, overnight fasting bloods (10 mL) were collected, and 1) plasma carotenoids, 2) antioxidant capacity in both the aqueous and lipid compartments, 3) lipid peroxidation, and 4) DNA damage will be measured in these samples. In addition, 70 mL of fasting blood was collected at days 1 and 57 for the analysis of gene expression profiling in peripheral blood mononuclear cells using high-density filter-based cDNA microarrays. On study day 57, an additional 3 ml of blood was collected to measure the hemoglobin level.
(§3) DNA breaks and oxidized pyrimidine bases were measured using the alkaline comet assay (Duthie et al Cancer Res 1996; 56:1291-1295). The comet assay, also called the Single Cell Gel Assay, was used to detect DNA damage and repair at the level of single cells. The Comet Assay is a rapid, sensitive test for DNA damage detection (e.g., single- and double-strand breaks, oxidative-induced base damage, and DNA-DNA/DNA-protein cross linking) by electrophoresis. The Comet Assay involves the following steps: 1. Slide preparation (i.e., mixing of cells with low melting agarose, and spread over glass microscope slides); 2. Lysis: (i.e., lysis of cell membrane and other proteins); 3. Unwinding of DNA; 4. Electrophoresis; 5. Neutralization; and 6. Staining and scoring. Cells embedded in agarose on a microscope slide are lysed with non-ionic detergent and high salt, leaving supercoiled matrix-attached DNA in a nucleoid. Under alkaline electrophoresis, DNA with breaks extends towards the anode, forming a “comet tail” when viewed by fluorescence microscopy. The percentage of total fluorescence in the tail is linearly related to DNA break frequency up to about 2 per 10^9 daltons.
(§4) Lymphocyte separation: Lymphocytes were separated immediately after blood samples were collected. Lymphocytes were isolated by density gradient sedimentation (Histopaque 1077, Sigma diagnostic, St. Louis, USA) and frozen in 50% fetal calf serum, 40% culture medium (RPMI 1640, Sigma diagnostic, St. Louis, USA ) and 10% dimethyl sulfoxide to −-80° C. at −1° C./min freezing rate before store in liquid nitrogen.
(§5) Cryopreserved lymphocytes recovery: Cells were recovered by submerging in 37° C. water bath until last trace of ice has melted. Cells were transferred to prechilled 50% RPMI 1640 medium and 50% fetal calf serum and centrifuged at 200 g for 5 min at 4° C. Cells were resuspended in cold PBS and checked for viability (typically 95% viability) and cell number (typically 1×10^5 cells/mL). The lymphocytes of five time points (d1, 15, 29, 43 & 57) were recovered at the same time.
(§6) Alkaline single cell gel electrophoresis: DNA strand breaks were measured in lymphocytes with the alkaline single cell gel electrophoresis, comet assay, (Collins A R. Methods Mol Biol 2002; 203:163-77) with minor modifications. The endogenous DNA damage as well as hydrogen peroxide challenged DNA damage were determined by exposing the agarose embedded with cells to PBS or H2O2 in PBS (10 μM) for 10 min respectively.
(§7) Quantitation of DNA damage: The DNA damage was determined by visual image analysis (Collins A R et al. Methods Mol Biol 2002; 186:147-59). […]

lymphocyte DNA [2] = assay: Basal (endogenous) lymphocyte DNA damage, alkaline single cell gel electrophoresis (comet) assay; assay type: in vivo, human; settings: for basal lymphocyte DNA damage: women 50-70 yr, mixed 4 mg each/d, single carotenoid 12 mg/d, Means ± SD; for basal DNA damage, percent of comet tail ratio (each day value divided by day 1): d 57, different from placebo p<0.005, FIG. 6; for basal (endogenous) DNA damage compared to day 1: day 15
Description: as §1, §2, §3, §4, §5, §6, §7

[3] = design: species or system human; settings: in vivo
Description: as §1
Subjects (50-70 yr, n=37) were housed at the MRU for the first two days of the study. On the first day of the study, subjects were randomly assigned to take either 1) placebo, 2) 4 mg each of lutein, β-carotene and lycopene, 3) 4 mg of lutein, 4) 4 mg of β-carotene, or 5) 4 mg of lycopene with a meal containing 25 g of fat. Subjects were provided with a two-week supply of placebo or carotenoids along with instructions how to consume the supplements while being maintained with a low carotenoid diet on each sampling day (days 1, 15, 29 & 43). In particular, they were instructed to take the carotenoid supplements with their first meal of the day, and this food source should include 10 g of fat to insure maximum absorption of the carotenoid supplement. 10 mL of blood will be drawn at 0 (fasting), 2, 4, 6, 8, 10, 12 and 14 hours after the carotenoid dose to obtain information on the early kinetics of carotenoid absorption and tissue uptake. The subjects had the option to have an intravenous line inserted for blood drawing (I.V.). If they chose this option, 12 mL of blood was drawn for each sample and the first 2 mL of blood was discarded. Chylomicrons (the triglyceride-rich fraction of plasma) were isolated and analyzed for carotenoids to determine the plasma response kinetics in these 14 hr samples. Thereafter, subjects were discharged from the HNRC with a two-week supply of placebo or carotenoids along with instructions on how to consume the doses while being maintained on a low carotenoid diet.
as §2
Plasma carotenoid concentrations were measured by a HPLC system as previously described with minor modification (Yeum K J et al. Am J Clin Nutr 1996; 64:594-602). Plasma sample (200 μL) was extracted with 2 mL of chloroform:methanol (2: 1) followed by 3 mL of hexane. Samples were dried under nitrogen and resuspended in 75 μL ethanol:methyl tert-butyl ether (2:1) of which 25 μL was injected onto the HPLC. The HPLC system consisted of a Waters 2695 Separation Module, 2996 Photodiode Array Detector, a Waters 2475 Multi X Fluorescence Detector, a C30 carotenoid column (3 μm, 150×3.0 mm, YMC, Wilmington, N.C.), and a Waters Millenium 32 data station. The mobile phase was methanol:methyl tert-butyl ether:water (85:12:3 with 1.5% ammonium acetate in water; […]) and methanol:methyl tert-butyl ether:water (8:90:2 with 1% ammonium acetate in water; […]). The gradient procedure has been reported earlier (Yeum K J et al. Am J Clin Nutr 1996; 64:594-602). Results were adjusted by an internal standard containing echinenone and retinyl acetate. The CV for interassay (n=25) is 4% and intra assay Is 4% (n=9). […]

Structure (SMILES) | hydrogen peroxide induced lymphocyte DNA damage (lymphocyte DNA [1]; Day 01 (baseline)) [%] | hydrogen peroxide induced lymphocyte DNA damage (lymphocyte DNA [1]; Day 15) [%] | hydrogen peroxide induced lymphocyte DNA damage (lymphocyte DNA [1]; Day 29) [%] | hydrogen peroxide induced lymphocyte DNA damage (lymphocyte DNA [1]; Day 43) [%] | hydrogen peroxide induced lymphocyte DNA damage (lymphocyte DNA [1]; Day 57) | H2O2 induced DNA damage compared to day 1 (lymphocyte DNA [1]) | basal lymphocyte DNA damage (lymphocyte DNA [2]; Day 01 (baseline)) [%] | basal lymphocyte DNA damage (lymphocyte DNA [2]; Day 15) | basal lymphocyte DNA damage (lymphocyte DNA [2]; Day 29) | basal lymphocyte DNA damage (lymphocyte DNA [2]; Day 43) | basal lymphocyte DNA damage (lymphocyte DNA [2]; Day 57) | basal DNA damage, percent of comet tail ratio (each day value divided by day 1) (lymphocyte DNA [2]) | plasma lycopene concentrations, change [3] | plasma β-carotene levels, change [3] | basal (endogenous) DNA damage compared to day 1 (lymphocyte DNA [2]) | plasma lutein levels, change [3]
CC1=C[C@H](O)CC(C)(C)[C@H]1/C=C/C(C)=C/C=C/C(C)=C/C=C/C=C(C)/C=C/C=C(C)/C=C/C1=C(C)C[C@@H](O)CC1(C)C [Lutein, lutein] | 42.8 ± 6.8 | 43.5 ± 6.2 | 43.1 ± 5.6 | 41.5 ± 9.3 | 39.8 ± 8.4^a % | did not show any significant change | 10.6 ± 1.4 | 9.4 ± 2.1% | 9.5 ± 1.4% | 7.7 ± 1.5^b % | 7.1 ± 1.7*^c % | significantly decreased | significantly lower levels | did not show any increase |  | 
CC(C)=CCC/C(C)=C/C=C/C(C)=C/C=C/C(C)=C/C=C/C=C(C)/C=C/C=C(C)/C=C/C=C(\C)CCC=C(C)C [Lycopene, lycopene] | 50.5 ± 8.9 | 49.2 ± 10.1 | 51.1 ± 3.5 | 50.0 ± 6.5 | 42.5 ± 6.5^b % | significantly improved; also recorded: significantly decreased | 11.9 ± 2.6 | 10.0 ± 3.5^a % | 9.0 ± 2.6^a % | 7.5 ± 1.9^b % | 6.8 ± 1.6*^c % | significantly decreased | significantly increased | did not show any increase | significantly decreased | no increase
CC1=C(/C=C/C(C)=C/C=C/C(C)=C/C=C/C=C(C)/C=C/C=C(C)/C=C/C2=C(C)CCCC2(C)C)C(C)(C)CCC1 [β-carotene] | 48.2 ± 6.1 | 44.5 ± 8.9 | 41.1 ± 6.2 | 44.2 ± 5.7 | 38.0 ± 4.8% | significantly improved; also recorded: significantly decreased | 12.4 ± 2.7 | 9.7 ± 2.4^b % | 8.6 ± 2.9^a % | 9.4 ± 2.4^a % | 8.0 ± 1.8^b % | significantly decreased | significantly lower levels |  | significantly decreased | no increase
